Data taken from the NIST ThermoML archive (doi:10.1021/je900672g).

Assay: isobaric coefficient of expansion
Conditions: Liquid, DSC

O=[N+]([O-])c1ccccc1 [nitrobenzene]
isobaric coefficient of expansion
Conditions	288.15 K	298.15 K	308.15 K	318.15 K	328.15 K	338.15 K	348.15 K
5000 kPa	0.000818 1/K	0.000823 1/K	0.000827 1/K	0.000832 1/K	0.000837 1/K	0.000843 1/K	0.000852 1/K
10000 kPa	0.000813 1/K	0.000808 1/K	0.000812 1/K	0.00082 1/K	0.000821 1/K	0.000828 1/K	0.000827 1/K
15000 kPa	0.000797 1/K	0.0008 1/K	0.000799 1/K	0.000802 1/K	0.000802 1/K	0.000806 1/K	0.000811 1/K
20000 kPa	0.000785 1/K	0.000785 1/K	0.000787 1/K	0.000792 1/K	0.000787 1/K	0.00079 1/K	0.000794 1/K
25000 kPa	0.000775 1/K	0.000772 1/K	0.000773 1/K	0.000774 1/K	0.000774 1/K	0.000775 1/K	0.00078 1/K
30000 kPa	0.000762 1/K	0.000762 1/K	0.00076 1/K	0.000762 1/K	0.000761 1/K	0.000762 1/K	0.000764 1/K
35000 kPa	0.000749 1/K	0.000752 1/K	0.00075 1/K	0.000749 1/K	0.00075 1/K	0.000751 1/K	0.00075 1/K
40000 kPa	0.00074 1/K	0.000742 1/K	0.000737 1/K	0.000737 1/K	0.000739 1/K	0.000736 1/K	0.000734 1/K
45000 kPa	0.000729 1/K	0.000731 1/K	0.000728 1/K	0.000729 1/K	0.000726 1/K	0.000725 1/K	0.000721 1/K
50000 kPa	0.000725 1/K	0.000722 1/K	0.000719 1/K	0.000718 1/K	0.000716 1/K	0.000715 1/K	0.000711 1/K
55000 kPa	0.000717 1/K	0.000714 1/K	0.00071 1/K	0.00071 1/K	0.000707 1/K	0.000708 1/K	0.000701 1/K

CC[N+](=O)[O-] [nitroethane]
isobaric coefficient of expansion
Conditions	278.15 K	288.15 K	298.15 K	308.15 K	318.15 K	328.15 K	338.15 K	348.15 K
5000 kPa	0.00113 1/K	0.00114 1/K	0.00115 1/K	0.00117 1/K	0.00119 1/K	0.0012 1/K	0.00122 1/K	0.00126 1/K
10000 kPa	0.0011 1/K	0.00111 1/K	0.00112 1/K	0.00114 1/K	0.00116 1/K	0.00116 1/K	0.00119 1/K	0.00121 1/K
15000 kPa	0.00109 1/K	0.00109 1/K	0.0011 1/K	0.00111 1/K	0.00113 1/K	0.00113 1/K	0.00114 1/K	0.00117 1/K
20000 kPa	0.00106 1/K	0.00107 1/K	0.00107 1/K	0.00109 1/K	0.0011 1/K	0.0011 1/K	0.00111 1/K	0.00112 1/K
25000 kPa	0.00104 1/K	0.00105 1/K	0.00105 1/K	0.00106 1/K	0.00107 1/K	0.00107 1/K	0.00108 1/K	0.0011 1/K
30000 kPa	0.00102 1/K	0.00103 1/K	0.00103 1/K	0.00104 1/K	0.00105 1/K	0.00104 1/K	0.00106 1/K	0.00107 1/K
35000 kPa	0.00101 1/K	0.00101 1/K	0.00101 1/K	0.00102 1/K	0.00102 1/K	0.00103 1/K	0.00103 1/K	0.00104 1/K
40000 kPa	0.000984 1/K	0.000987 1/K	0.000993 1/K	0.000994 1/K	0.000999 1/K	0.001 1/K	0.00101 1/K	0.00101 1/K
45000 kPa	0.000973 1/K	0.000972 1/K	0.000973 1/K	0.000977 1/K	0.000981 1/K	0.000984 1/K	0.000982 1/K	0.000989 1/K
50000 kPa	0.000958 1/K	0.00096 1/K	0.00096 1/K	0.000961 1/K	0.000964 1/K	0.000964 1/K	0.000964 1/K	0.000966 1/K
55000 kPa	0.00094 1/K	0.000944 1/K	0.000941 1/K	0.000942 1/K	0.000945 1/K	0.000944 1/K	0.000945 1/K	0.000947 1/K

CCC[N+](=O)[O-] [1-nitropropane]
isobaric coefficient of expansion
Conditions	278.15 K	288.15 K	298.15 K	308.15 K	318.15 K	328.15 K	338.15 K	348.15 K
5000 kPa	0.00105 1/K	0.00106 1/K	0.00108 1/K	0.00109 1/K	0.00113 1/K	0.00115 1/K	0.00119 1/K	0.00122 1/K
10000 kPa	0.00103 1/K	0.00104 1/K	0.00105 1/K	0.00106 1/K	0.00109 1/K	0.00111 1/K	0.00113 1/K	0.00117 1/K
15000 kPa	0.00101 1/K	0.00101 1/K	0.00103 1/K	0.00104 1/K	0.00106 1/K	0.00107 1/K	0.00109 1/K	0.00111 1/K
20000 kPa	0.000982 1/K	0.000991 1/K	0.001 1/K	0.00101 1/K	0.00103 1/K	0.00104 1/K	0.00105 1/K	0.00107 1/K
25000 kPa	0.000966 1/K	0.000972 1/K	0.000977 1/K	0.000986 1/K	0.000995 1/K	0.00101 1/K	0.00102 1/K	0.00103 1/K
30000 kPa	0.000943 1/K	0.000954 1/K	0.000958 1/K	0.000963 1/K	0.000976 1/K	0.000981 1/K	0.000988 1/K	0.000996 1/K
35000 kPa	0.000933 1/K	0.000932 1/K	0.000941 1/K	0.000945 1/K	0.000952 1/K	0.000957 1/K	0.000964 1/K	0.000967 1/K
40000 kPa	0.000913 1/K	0.000916 1/K	0.00092 1/K	0.000921 1/K	0.000927 1/K	0.00093 1/K	0.00093 1/K	0.000932 1/K
45000 kPa	0.000902 1/K	0.000902 1/K	0.000904 1/K	0.000906 1/K	0.00091 1/K	0.000912 1/K	0.000914 1/K	0.000915 1/K
50000 kPa	0.000885 1/K	0.000887 1/K	0.000889 1/K	0.000891 1/K	0.000895 1/K	0.000894 1/K	0.000894 1/K	0.000894 1/K
55000 kPa	0.000871 1/K	0.000874 1/K	0.000875 1/K	0.000873 1/K	0.00088 1/K	0.00088 1/K	0.000883 1/K	0.000879 1/K
